Laboratory results from patent US12453700B2, “Nano-particles of menaquinone-9 and methods of treatment” (Epizon, Inc., priority 2024, dated 2025).

Assay: Dissolution testing of MK-9 API and nanosuspension in Fed State Simulated Intestinal Fluid (FeSSIF)
Assay type: physicochemical
Details: for % Dissolution (Avg of n = 3): FeSSIF pH 5, 37° C., 0.01 mg/mL drug load
Experimental: MK-9 (menaquinone-9, API) is suspended in an aqueous vehicle containing wetting agent sodium deoxycholate. The API concentration is 4% and the wetting agent concentration was 0.4% w/w. The API particles are milled to a particle size of 155 nm using zirconium milling beads and high shear Beadbeater mixing. The dissolution of the nanosuspension is tested at a concentration of 0.01 mg/mL, in triplicate, in pH 5 Fed State Simulated Intestinal Fluid (FeSSIF).
2. Fill three (3) vessels with 500 mL of FeSSIF media and heat to 37° C.
3. Set up the following dissolution conditions:
4. Vortex suspension x for approximately one minute so that it is uniform. Weigh three (3) aliquots of 0.15 g of the 4% nanosuspension into a tared syringe to give a target 100% dissolution concentration of 0.01 mg/mL. Record weight.
5. Add weighed suspension directly to each vessel.
7. After five minutes, manually pull up 3 mL from each dissolution vessel in a syringe.
8. Attach a 0.2 μm filter to the syringe.
9. Transfer 2 mL of the dissolution sample back into the vessel.
10. Transfer the final 1 mL of sample to an amber HPLC vial and crimp seal.
12. After the 60-minute time-point, mix each vessel for 5 minutes with a high shear mixer.
13. Repeat Step #8-11 and label this sample as ‘infinity’.
14. Run samples on HPLC 10 minutes HPLC method with replicate HPLC standard solutions.
MK-9 (menaquinone-9, API) is suspended in an aqueous vehicle containing wetting agent, sodium deoxycholate. The API concentration is 4% and the wetting agent concentration was 0.4% w/w. The API particles are milled to a particle size of 155 nm by use of zirconium milling beads and high shear Beadbeater mixing. The dissolution of the nanosuspension is tested at a concentration of 0.01 mg/mL, in triplicate, in pH 5 FeSSIF. […] The nano-milling process is scaled up and the suspended nano-particles are removed from the suspension vehicle, dry and formulate into a fast dissolving tablet, and tested.

% Dissolution (Avg of n = 3) (timepoint 0 minute): 0% | % Dissolution (Avg of n = 3) (timepoint 10 minute): 96% | % Dissolution (Avg of n = 3) (timepoint 10 minute, listed as MK-9 API): about 20% | % Dissolution (Avg of n = 3) (timepoint 15 minute): 97% | % Dissolution (Avg of n = 3) (timepoint 30 minute): 97% | % Dissolution (Avg of n = 3) (timepoint 45 minute): 98% | % Dissolution (Avg of n = 3) (timepoint 60 minute): 96% | % Dissolution (Avg of n = 3) (timepoint Infinity (after 5 minutes high shear mixing)): 97% | % Dissolution (dissolution profile) (FeSSIF, at about 120 mins): about 20%
SMILES: CC(C)=CCC/C(C)=C/CC/C(C)=C/CC/C(C)=C/CC/C(C)=C/CC/C(C)=C/CC/C(C)=C/CC/C(C)=C/CC/C(C)=C/CC1=C(C)C(=O)c2ccccc2C1=O [API, menaquinone-9]
